Laboratory results published in paper PMC5581522 (Cancer Science, 2017).
Entries after “also recorded” stand apart in the source; their conditions may differ. Where two headings read alike, the source gives them in different places. Marks after values point to notes of the source that are not given here.

Assays:
[1] = Phase 1 tolerability and safety (DLT, TEAEs, NCI CTCAE v4.0); format: in vivo, Japanese patients
Procedure: Eligible patients were assigned to one of two treatment groups (dose levels). […] Three to six patients were enrolled in each treatment group. Dose escalation was carried out according to a 3 + 3 design to define dose‐limiting toxicities (DLTs), and the maximum administered dose/recommended phase 2 dose (RP2D). […] Patients received treatment for a maximum of 30 cycles or until treatment discontinuation. […] Treatment could be postponed for up to 28 days due to toxicity; longer toxicity‐related delays would lead to study discontinuation.
The maximum tolerated dose (MTD) was defined as the highest dose level at which fewer than two of total six patients or <33% of patients (if the cohort was expanded beyond six patients) experienced a DLT. The RP2D was determined based on the observed DLTs and identified MTD; RP2D would not be dosed higher than the MTD. If the MTD was not reached, the RP2D was defined based on the safety and PK data. Prophylactic use of antiemetics and colony‐stimulating factors was not permitted during the DLT‐evaluation period, in order to clearly define the safety profile in Japanese patients.
The safety of each treatment group was assessed by evaluating study drug exposure, AEs, serious AEs (SAEs), all deaths, changes in laboratory determinations, and vital signs parameters. […] AEs were assessed according to the NCI CTCAE version 4.0.29 An independent data monitoring committee reviewed safety data for DLT evaluation.

[2] = Plasma pharmacokinetics, cycle 1 day 1, noncompartmental; format: in vivo, Japanese patients; conditions: for half-life / AUC(0-inf) / Cmax / AUC(0-t): human, plasma; for half-life: harmonic mean ± pseudo SD; for AUC(0-inf) / Cmax / AUC(0-t): mean ± SD; for AUC(0-t): read-out: AUC0–8
Description: Noncompartmental methods were used to determine the maximum observed plasma concentration (C max), the time to C max (T max), the area under the plasma concentration‐time curve (AUC), and terminal elimination half‐life (t 1/2).

advanced solid tumors = assay: Preliminary antitumor efficacy (RECIST version 1.1, TTP); format: in vivo, Japanese patients; conditions: for ORR: measurable disease
Procedure: To determine preliminary antitumor efficacy, baseline radiographic tumor assessments were conducted within 3 weeks prior to registration and thereafter every 8 weeks from cycle 1 day 1 and at the final visit, using the Response Evaluation Criteria In Solid Tumors (RECIST) version 1.1.30 In addition, the investigator evaluated the patient for evidence of clinical disease progression at each visit. Changes in measurable tumor lesions were assessed to determine the response rate, defined as proportion of patients with complete response (CR) or partial response (PR), and time to progression (TTP), defined as the number of days from the date the patient was dosed to the date the patient experienced an event of progressive disease (PD). […] Changes from baseline in performance status were analyzed.
Unless otherwise noted, for all statistical analyses, statistical significance was determined by a two‐sided P‐value ≤0.05. Descriptive statistics were used to describe baseline demographic variables, and summary statistics were computed for PK variables at each sampling time. PK variables were determined per patient and dose level. The safety of veliparib was assessed by evaluating veliparib exposure, AEs, SAEs, all deaths, and changes in laboratory determinations and vital sign parameters. The proportion of patients with CR or PR was estimated with a 95% confidence interval (CI) constructed for the estimated proportion. The distribution of TTP was estimated using Kaplan‐Meier methodology.

[3] = test system: cancer antigen 125 (CA‐125); assay: CA-125 tumor marker response (GCIG definition); format: in vivo, Japanese patients
Procedure: All enrolled patients with ovarian cancer or peritoneal cancer had measurements of cancer antigen 125 (CA‐125) on day 1 of cycle 1, every cycle (28 days) thereafter, and at the final visit. CA‐125 response was measured according to the Gynecologic Cancer InterGroup (GCIG) CA‐125 response definition.31

BRCA‐mutated tumors = conditions: phase 1, single agent; cited from earlier work
[4] = test system: recurrent ovarian cancer and germline BRCA1 and BRCA2 mutations; conditions: cited from earlier work
[5] = 200 mg oral, cycle 1 day 1, n = 4
[6] = 400 mg oral, cycle 1 day 1, n = 9
[7] = 400 mg oral, cycle 1 day 1, n = 12
[8] = 14 patients with measurable disease

C[C@]1(c2nc3c(C(N)=O)cccc3[nH]2)CCCN1 [veliparib]
AEs / toxicities leading to death ([1]; all patients): No toxicities leading to death; also recorded: no AEs or SAEs leading to death
patients who discontinued treatment due to AEs/toxicity ([1]; human, in vivo): 6%
patients with a grade ≥3 AE / toxicity ([1]; human, in vivo): 50%
patients with abdominal pain ([1]; human, in vivo): 31.3%
patients with at least one grade ≥1 TEAE ([1]; human, in vivo): 100%
patients with decreased appetite ([1]; human, in vivo): 62.5%
patients with diarrhea ([1]; human, in vivo): 31.3%
patients with dysgeusia ([1]; human, in vivo): 31.3%
patients with fatigue ([1]; human, in vivo): 25%
patients with insomnia ([1]; human, in vivo): 25%
patients with malaise ([1]; human, in vivo): 31.3%
patients with nausea ([1]; human, in vivo): 93.8%
patients with neutropenia ([1]; human, in vivo): 25%
patients with thrombocytopenia ([1]; human, in vivo): 25%
patients with vomiting ([1]; human, in vivo): 93.8%
recommended phase 2 dose (RP2D) ([1]; human, in vivo, po, 28 days): 400 mg BID
anemia leading to dose interruption, reduction, or delay ([1]; in vivo): one patient
decreased appetite leading to dose interruption, reduction, or delay ([1]; in vivo): one patient
essential tremor leading to dose interruption, reduction, or delay ([1]; in vivo): one patient
fatigue leading to dose interruption, reduction, or delay ([1]; in vivo): three patients
nausea leading to dose interruption, reduction, or delay ([1]; in vivo): three patients
neutropenia leading to dose interruption, reduction, or delay ([1]; in vivo): three patients
patients experiencing a SAE ([1]; in vivo): two patients
patients with a dose‐limiting toxicity (DLT) ([1]; in vivo): one patient
thrombocytopenia leading to dose interruption, reduction, or delay ([1]; in vivo): three patients
vomiting leading to dose interruption, reduction, or delay ([1]; in vivo): two patients
half-life [2, 5]: 4.6 ± 1.1 h
AUC(0-inf) [2, 5]: 13600 ± 6240 ng·h/mL
Cmax [2, 5]: 2060 ± 1390 ng/mL
AUC(0-t) [2, 5]: 8890 ± 3770 ng·h/mL
half-life [2, 6]: 4.6 ± 1.3 h
AUC(0-inf) [2, 6]: 29500 ± 9820 ng·h/mL
Cmax [2, 7]: 3280 ± 1040 ng/mL
AUC(0-t) [2, 7]: 16600 ± 3590 ng·h/mL
increase of C max and AUC with dose ([2]; single‐dose oral 200 mg and 400 mg): dose‐proportional
Best response: CR (advanced solid tumors; 200 mg BID (n = 4)): 0 n (%)
Best response: Not evaluable (advanced solid tumors; 200 mg BID (n = 4)): 1 (25.0) n (%)
Best response: PD (advanced solid tumors; 200 mg BID (n = 4)): 1 (25.0) n (%)
Best response: PR (advanced solid tumors; 200 mg BID (n = 4)): 1 (25.0) n (%)
Best response: Stable disease (advanced solid tumors; 200 mg BID (n = 4)): 1 (25.0) n (%)
DCR (CR + PR + stable disease) (advanced solid tumors; 200 mg BID (n = 4)): 2 (50.0) n (%)
ORR (advanced solid tumors; 200 mg BID (n = 4), 95% CI 0.6–80.6): 1 ^§ (25.0) [0.6–80.6] %
Median TTP (advanced solid tumors; 200 mg dose cohort): 106 (range, 17–226) days
Best response: CR (advanced solid tumors; 400 mg BID (n = 10)): 0 n (%)
Best response: Not evaluable (advanced solid tumors; 400 mg BID (n = 10)): 0 n (%)
Best response: PD (advanced solid tumors; 400 mg BID (n = 10)): 2 (20.0) n (%)
Best response: PR (advanced solid tumors; 400 mg BID (n = 10)): 1 (10.0) n (%)
Best response: Stable disease (advanced solid tumors; 400 mg BID (n = 10)): 7 (70.0) n (%)
DCR (CR + PR + stable disease) (advanced solid tumors; 400 mg BID (n = 10)): 8 (80.0) n (%)
ORR (advanced solid tumors; 400 mg BID (n = 10), 95% CI 0.3–44.5): 1 ^¶ (10.0) [0.3–44.5] %
Median TTP (advanced solid tumors; 400 mg dose cohort): 170 (range, 48–340) days
disease control overall (advanced solid tumors; 12 of 16 patients): 75%
patients progressed at first tumor assessment (advanced solid tumors; [8]): 21.4%
patients with best objective response stable disease (advanced solid tumors; [8]): eight patients
patients with best objective response PR (advanced solid tumors; 14 patients with measurable disease, both with platinum sensitive ovarian cancer): Two patients
patients who discontinued treatment due to disease progression (advanced solid tumors; all 16 patients): 75%
median percentage change from baseline in the sum of the tumor sizes of target lesions (advanced solid tumors; all patients, range, −46.8% to +50.0%): −10.3%
disease control rate (DCR, CR + PR + stable disease) (advanced solid tumors; patients with measurable disease (10/14)): 71.4%
Median TTP (advanced solid tumors; platinum sensitive ovarian or peritoneal cancer, 400 mg BID, range, 48–340): 218 days
Best response: CR (advanced solid tumors; total (n = 14)): 0 n (%)
Best response: Not evaluable (advanced solid tumors; total (n = 14)): 1 (7.1) n (%)
Best response: PD (advanced solid tumors; total (n = 14)): 3 (21.4) n (%)
Best response: PR (advanced solid tumors; total (n = 14)): 2 (14.3) n (%)
Best response: Stable disease (advanced solid tumors; total (n = 14)): 8 (57.1) n (%)
DCR (CR + PR + stable disease) (advanced solid tumors; total (n = 14)): 10 (71.4) n (%)
ORR (advanced solid tumors; total (n = 14), 95% CI 1.8–42.8): 14.3%
ORR (advanced solid tumors; total (n = 14), 95% CI 1.8–42.8, listed as Veliparib): 2 (14.3) [1.8–42.8] %
best objective response (advanced solid tumors; two patients without measurable disease at baseline): non‐CR/non‐PD
median change in CA‐125 level from baseline ([3]; all patients, range: −97.8% to +155.2%): −18.8%
patients achieving CA‐125 response ([3]; ovarian (n = 14) or primary peritoneal cancer (n = 1)): 20%
clinical benefit rate (called DCR) (BRCA‐mutated tumors): 68%
objective response rate (ORR) (BRCA‐mutated tumors): 40%
DCR ([4]; GOG‐280 study, germline BRCA1 or BRCA2 mutation): 74.0%
patients with objective response ([4]; n = 50, 90% CI: 16–38%): 26%
CR (number of patients) ([4]; n = 50): 2
PR (number of patients) ([4]; n = 50): 11
median progression‐free survival ([4]; phase 2 monotherapy): 8.2 months
objective responses ([4]; platinum‐resistant patients, n = 6/30, 90% CI: 9–36%): 20%
objective responses ([4]; platinum‐sensitive patients, n = 7/20, 90% CI: 18–56%): 35%
